Results on four compounds are retold here after ChEMBL document CHEMBL4387793, “Styrenes from the Seeds of Atalantia monophylla” (J Nat Prod, 2019).

The test system of test [1] is HepG2. Description: Cytotoxicity against human HepG2 cells by SRB assay. The class given is functional, cell-based. (In general: In SRB staining, fixed cells bind dye roughly in proportion to their protein.)
A short description of test [2]: Cytotoxicity against human KKU-M156 cells by SRB assay. Format: functional, cell-based.

In the case of `COc1cc(OC)c([C@H]2CC[C@H]2c2c(OC)cc(OC)cc2OC)c(OC)c1`, the IC50 in test [1] and in test [2] was less than 10 µM throughout.
For `COc1cc(OC)c(/C=C/[C@H](C)c2c(OC)cc(OC)cc2OC)c(OC)c1`, the IC50 in test [1] and in test [2] was less than 10 µM each time.
As to `COc1cc(OC)c2c(c1)O[C@@H](c1c(OC)cc(OC)cc1OC)C[C@@H]2C`, the IC50 in test [1] and in test [2] was less than 10 µM in each case.
Turning to `COc1cc(OC)c2c(c1)O[C@@H](c1c(O)cc(OC)cc1OC)C[C@@H]2C`, the IC50 in test [1] and in test [2] was less than 10 µM each time.

A word on the IC50: it is the concentration that inhibits the measured activity by half.
